Data as given in patent publication US20230357310A1, “Saponin derivatives with improved therapeutic window” (priority 2019, published 2023).

Legend:
[1] = Critical micellar concentration (ANS fluorescence); type: physicochemical; details: for CMC compared with native (underivatised) saponin: comparison in words; for CMC: SO saponins, determined in PBS, Table A7
Method: The critical micellar concentration (CMC) of saponins derived from Saponaria officinalis (SO) (Table A7) and derived from Quillaja saponaria (QS) (Table A8, and Table A9) was determined by the method of DeVendittis et al. (A fluorimetric method for the estimation of the critical micelle concentration of surfactants, Analytical Biochemistry, Volume 115, Issue 2, August 1981, Pages 278-286) as follows:
The emission spectrum of 8-Anilinonaphthalene-1-sulfonic acid (ANS) in either purified water (MQ) or PBS (Dulbecco's PBS+/+) was determined at dry weight concentrations of saponins ranging from 1 to 1400 μM to cover the range below and above the CMC. Above the CMC, the fluorescence yield of ANS increases and the wavelength of maximum emission decreases due to portioning of the fluorescent dye into micelles. Fluorescence yields were recorded on a Fluoroskan Ascent FL (Thermo Scientific) at an excitation wavelength of 355 nm, and an emission wavelength of 460 nm. 6 μg at a concentration of 75.86 μM of ANS were used per sample and measurement.

[2] = test system: EGFR expressing cells (HeLa); test: cells; details: summary statement in the description

Compound | CMC compared with native (underivatised) saponin [1] | endosomal escape enhancing activity (enhancement of cytotoxicity of ADC / effector molecules) [2] | further results
CC(=O)OC1C(C)OC(OC2C(C)OC(OC(=O)[C@]34CCC(C)(C)CC3C3=CCC5[C@@]6(C)CC[C@H](OC7OC(C(=O)NC(C)(CO)CO)C(O)C(OC8OCC(O)C(O)C8O)C7OC7OC(CO)C(O)C(O)C7O)[C@@](C)(C=O)C6CC[C@@]5(C)[C@]3(C)C[C@H]4O)C(OC3OC(C)C(OC4OCC(O)C(OC5OC(CO)C(O)C(O)C5O)C4O)C(O)C3O)C2O)C(O)C1OC1OC(C)C(O)C(O)C1O (stereo partly drawn) [SO1861-Glu-AMPD] | lower CMC values | – | –
CC(=O)OC1C(C)OC(OC2C(C)OC(OC(=O)[C@]34CCC(C)(C)CC3C3=CCC5[C@@]6(C)CC[C@H](OC7OC(C(=O)NCCN8C(=O)C=CC8=O)C(O)C(OC8OCC(O)C(O)C8O)C7OC7OC(CO)C(O)C(O)C7O)[C@@](C)(C=O)C6CC[C@@]5(C)[C@]3(C)C[C@H]4O)C(OC3OC(C)C(OC4OCC(O)C(OC5OC(CO)C(O)C(O)C5O)C4O)C(O)C3O)C2O)C(O)C1OC1OCC(O)C(O)C1O (stereo partly drawn) [Molecule 18] | – | display activity | –
CC(=O)OC1C(C)OC(OC2C(C)OC(OC(=O)[C@]34CCC(C)(C)CC3C3=CCC5[C@@]6(C)CC[C@H](OC7OC(C(=O)NC(C)(CO)CO)C(O)C(OC8OCC(O)C(O)C8O)C7OC7OC(CO)C(O)C(O)C7O)[C@@](C)(CO)C6CC[C@@]5(C)[C@]3(C)C[C@H]4O)C(OC3OC(C)C(OC4OCC(O)C(OC5OC(CO)C(O)C(O)C5O)C4O)C(O)C3O)C2O)C(O)C1OC1OCC(O)C(O)C1O (stereo partly drawn) [SO1861-(Ald-OH)-(Glu-AMPD)] | lower CMC values | – | –
CC1OC(OC2C(C)OC(OC(=O)[C@]34CCC(C)(C)CC3C3=CCC5[C@@]6(C)CC[C@H](OC7OC(C(=O)NCCN8C(=O)C=CC8=O)C(O)C(OC8OCC(O)C(O)C8O)C7OC7OC(CO)C(O)C(O)C7O)[C@@](C)(CO)C6CC[C@@]5(C)[C@]3(C)C[C@H]4O)C(OC3OC(C)C(OC4OCC(O)C(OC5OC(CO)C(O)C(O)C5O)C4O)C(O)C3O)C2O)C(O)C(OC2OCC(O)C(O)C2O)C1O (stereo partly drawn) [SO1861-(Glu-AEM)-(Ald-OH)-(Ac—OH)] | – | – | CMC [1]: >150 µM
CC(=O)OC1C(C)OC(OC2C(C)OC(OC(=O)[C@]34CCC(C)(C)CC3C3=CCC5[C@@]6(C)CC[C@H](OC7OC(C(=O)O)C(O)C(OC8OCC(O)C(O)C8O)C7OC7OC(CO)C(O)C(O)C7O)[C@@](C)(CO)C6CC[C@@]5(C)[C@]3(C)C[C@H]4O)C(OC3OC(C)C(OC4OCC(O)C(OC5OC(CO)C(O)C(O)C5O)C4O)C(O)C3O)C2O)C(O)C1OC1OCC(O)C(O)C1O (stereo partly drawn) [SO1861-Ald-OH] | higher CMC values | – | –
CC(=O)OC1C(C)OC(OC2C(C)OC(OC(=O)C34CCC(C)(C)CC3C3=CCC5C6(C)CCC(OC7OC(C(=O)NC(C)(CO)CO)C(O)C(OC8OCC(O)C(O)C8O)C7OC7OC(CO)C(O)C(O)C7O)C(C)(C=NNC(=O)CCCCCN7C(=O)C=CC7=O)C6CCC5(C)C3(C)CC4O)C(OC3OC(C)C(OC4OCC(O)C(OC5OC(CO)C(O)C(O)C5O)C4O)C(O)C3O)C2O)C(O)C1OC1OCC(O)C(O)C1O (stereo not drawn) [SO1861-(Ald-EMCH)-(Glu-AMPD)] | lower CMC values | – | CMC [1]: >30 µM
CC(=O)OC1C(C)OC(OC2C(C)OC(OC(=O)[C@]34CCC(C)(C)CC3C3=CCC5[C@@]6(C)CC[C@H](OC7OC(C(=O)NCCN8C(=O)C=CC8=O)C(O)C(OC8OCC(O)C(O)C8O)C7OC7OC(CO)C(O)C(O)C7O)[C@@](C)(CO)C6CC[C@@]5(C)[C@]3(C)C[C@H]4O)C(OC3OC(C)C(OC4OCC(O)C(OC5OC(CO)C(O)C(O)C5O)C4O)C(O)C3O)C2O)C(O)C1OC1OCC(O)C(O)C1O (stereo partly drawn) [Molecule 20] | – | have the capacity to enhance the cytotoxic effect | –
CC1OC(OC2C(C)OC(OC(=O)[C@]34CCC(C)(C)CC3C3=CCC5[C@@]6(C)CC[C@H](OC7OC(C(=O)NCCN8C(=O)C=CC8=O)C(O)C(OC8OCC(O)C(O)C8O)C7OC7OC(CO)C(O)C(O)C7O)[C@@](C)(C=O)C6CC[C@@]5(C)[C@]3(C)C[C@H]4O)C(OC3OC(C)C(OC4OCC(O)C(OC5OC(CO)C(O)C(O)C5O)C4O)C(O)C3O)C2O)C(O)C(OC2OCC(O)C(O)C2O)C1O (stereo partly drawn) [Molecule 19] | – | display activity | –
CC1OC(OC2C(C)OC(OC(=O)[C@]34CCC(C)(C)CC3C3=CCC5[C@@]6(C)CC[C@H](OC7OC(C(=O)O)C(O)C(OC8OCC(O)C(O)C8O)C7OC7OC(CO)C(O)C(O)C7O)[C@@](C)(CO)C6CC[C@@]5(C)[C@]3(C)C[C@H]4O)C(OC3OC(C)C(OC4OCC(O)C(OC5OC(CO)C(O)C(O)C5O)C4O)C(O)C3O)C2O)C(O)C(OC2OCC(O)C(O)C2O)C1O (stereo partly drawn) [SO1861-(Ald-OH)-(Ac—OH)] | – | – | CMC [1]: >280 µM; CMC compared with native (underivatised) saponin ([1]; listed as SO1861-(Ald-OH)—(Ac—OH)): increased CMC values
CC(=O)OC1C(C)OC(OC2C(C)OC(OC(=O)[C@]34CCC(C)(C)CC3C3=CCC5[C@@]6(C)CC[C@H](OC7OC(C(=O)NC(C)(CO)CO)C(O)C(OC8OCC(O)C(O)C8O)C7OC7OC(CO)C(O)C(O)C7O)[C@@](C)(CO)C6CC[C@@]5(C)[C@]3(C)C[C@H]4O)C(OC3OC(C)C(OC4OCC(O)C(OC5OC(CO)C(O)C(O)C5O)C4O)C(O)C3O)C2O)C(O)C1OC1OCC(O)C(O)C1O (stereo partly drawn) [Molecule 9] | – | have the capacity to enhance the cytotoxic effect | –
CC1OC(OC2C(C)OC(OC(=O)[C@]34CCC(C)(C)CC3C3=CCC5[C@@]6(C)CC[C@H](OC7OC(C(=O)NC(C)(CO)CO)C(O)C(OC8OCC(O)C(O)C8O)C7OC7OC(CO)C(O)C(O)C7O)[C@@](C)(C=O)C6CC[C@@]5(C)[C@]3(C)C[C@H]4O)C(OC3OC(C)C(OC4OCC(O)C(OC5OC(CO)C(O)C(O)C5O)C4O)C(O)C3O)C2O)C(O)C(OC2OCC(O)C(O)C2O)C1O (stereo partly drawn) [Molecule 11] | – | display activity | –
CC(=O)OC1C(C)OC(OC2C(C)OC(OC(=O)[C@]34CCC(C)(C)CC3C3=CCC5[C@@]6(C)CC[C@H](OC7OC(C(=O)NC(C)(CO)CO)C(O)C(OC8OCC(O)C(O)C8O)C7OC7OC(CO)C(O)C(O)C7O)[C@@](C)(C=O)C6CC[C@@]5(C)[C@]3(C)C[C@H]4O)C(OC3OC(C)C(OC4OCC(O)C(OC5OC(CO)C(O)C(O)C5O)C4O)C(O)C3O)C2O)C(O)C1OC1OCC(O)C(O)C1O (stereo partly drawn) [Molecule 3A] | – | display activity | –
CC(=O)OC1C(C)OC(OC2C(C)OC(OC(=O)C34CCC(C)(C)CC3C3=CCC5C6(C)CCC(OC7OC(C(=O)O)C(O)C(OC8OCC(O)C(O)C8O)C7OC7OC(CO)C(O)C(O)C7O)C(C)(C=NNC(=O)CCCCCN7C(=O)C=CC7=O)C6CCC5(C)C3(C)CC4O)C(OC3OC(C)C(OC4OCC(O)C(OC5OC(CO)C(O)C(O)C5O)C4O)C(O)C3O)C2O)C(O)C1OC1OCC(O)C(O)C1O (stereo not drawn) [Molecule 2] | increased CMC | – | –
CC(=O)OC1C(C)OC(OC2C(C)OC(OC(=O)[C@]34CCC(C)(C)CC3C3=CCC5[C@@]6(C)CC[C@H](OC7OC(C(=O)NCCN8C(=O)C=CC8=O)C(O)C(OC8OCC(O)C(O)C8O)C7OC7OC(CO)C(O)C(O)C7O)[C@@](C)(CO)C6CC[C@@]5(C)[C@]3(C)C[C@H]4O)C(OC3OC(C)C(OC4OCC(O)C(OC5OC(CO)C(O)C(O)C5O)C4O)C(O)C3O)C2O)C(O)C1OC1OCC(O)C(O)C1O (stereo partly drawn) [SO1861-(Glu-AEM)-(Ald-OH)] | lower CMC values | – | –
CC1OC(OC2C(C)OC(OC(=O)C34CCC(C)(C)CC3C3=CCC5C6(C)CCC(OC7OC(C(=O)O)C(O)C(OC8OCC(O)C(O)C8O)C7OC7OC(CO)C(O)C(O)C7O)C(C)(C=NNC(=O)CCCCCN7C(=O)C=CC7=O)C6CCC5(C)C3(C)CC4O)C(OC3OC(C)C(OC4OCC(O)C(OC5OC(CO)C(O)C(O)C5O)C4O)C(O)C3O)C2O)C(O)C(OC2OCC(O)C(O)C2O)C1O (stereo not drawn) [SO1861-(Ald-EMCH)-(Ac—OH)] | – | – | CMC [1]: >300 µM; CMC compared with native (underivatised) saponin ([1]; listed as SO1861-(Ald-EMCH)—(Ac—OH)): increased CMC values
CC1OC(OC2C(C)OC(OC(=O)[C@]34CCC(C)(C)CC3C3=CCC5[C@@]6(C)CC[C@H](OC7OC(C(=O)O)C(O)C(OC8OCC(O)C(O)C8O)C7OC7OC(CO)C(O)C(O)C7O)[C@@](C)(C=O)C6CC[C@@]5(C)[C@]3(C)C[C@H]4O)C(OC3OC(C)C(OC4OCC(O)C(OC5OC(CO)C(O)C(O)C5O)C4O)C(O)C3O)C2O)C(O)C(OC2OCC(O)C(O)C2O)C1O (stereo partly drawn) [SO1861-Ac—OH] | higher CMC values | – | –
CC1OC(OC2C(C)OC(OC(=O)[C@]34CCC(C)(C)CC3C3=CCC5[C@@]6(C)CC[C@H](OC7OC(C(=O)NCCN8C(=O)C=CC8=O)C(O)C(OC8OCC(O)C(O)C8O)C7OC7OC(CO)C(O)C(O)C7O)[C@@](C)(C=O)C6CC[C@@]5(C)[C@]3(C)C[C@H]4O)C(OC3OC(C)C(OC4OCC(O)C(OC5OC(CO)C(O)C(O)C5O)C4O)C(O)C3O)C2O)C(O)C(OC2OCC(O)C(O)C2O)C1O (stereo partly drawn) [SO1861-(Glu-AEM)-(Ac—OH)] | lower CMC values | – | –
CC1OC(OC2C(C)OC(OC(=O)[C@]34CCC(C)(C)CC3C3=CCC5[C@@]6(C)CC[C@H](OC7OC(C(=O)NC(C)(CO)CO)C(O)C(OC8OCC(O)C(O)C8O)C7OC7OC(CO)C(O)C(O)C7O)[C@@](C)(C=O)C6CC[C@@]5(C)[C@]3(C)C[C@H]4O)C(OC3OC(C)C(OC4OCC(O)C(OC5OC(CO)C(O)C(O)C5O)C4O)C(O)C3O)C2O)C(O)C(OC2OCC(O)C(O)C2O)C1O (stereo partly drawn) [SO1861-(Ac—OH)-(Glu-AMPD)] | lower CMC values | – | –
